Experimental data published in US20130274216A1 (priority 2012, published 2013).

How the values were obtained:
[1] = tested on: Fusarium conidia infected murine cornea; assay: In vivo murine fungal keratitis model, neutrophil infiltration of the infected cornea; design: species or system C57BL/6 mice; settings: for neutrophil infiltration (neutrophils per 5 μm corneal section): 24 hours after infection, infected PBS or vehicle groups >200 neutrophils/section
[2] = tested on: Aspergillus flavus; assay type: in vivo, murine

Row | SMILES | neutrophil infiltration (neutrophils per 5 μm corneal section) ([1]; 0.1% w/v test group) | neutrophil infiltration (neutrophils per 5 μm corneal section) ([1]; 1% w/v test group) | neutrophil infiltration, effect in words ([1]; test groups vs infected PBS/vehicle groups, 24 hours, FIG. 2) | reduction in CFUs/eye ([2]; 72 hours after infection with Aspergillus, dosed qid for 48 hours, control approximately 15000 CFUs/eye, FIG. 3B) | Aspergillus infection evaluated by RFP expression ([2]; fluorescence micrographs of murine corneas 72 hours after infection, FIG. 3A)
1 | COc1ccc(Nc2nc(-c3cccs3)nc3cn[nH]c23)cc1OC [Compound 1] | < 100 neutrophils/section | < 100 neutrophils/section | dose-dependent reduction | – | –
2 | C[C@@H]1C/C=C/C=C/C=C/C=C/[C@H](O[C@@H]2O[C@H](C)[C@@H](O)[C@H](N)[C@@H]2O)C[C@@H]2O[C@](O)(C[C@@H](O)C[C@H]3O[C@@H]3/C=C/C(=O)O1)C[C@H](O)[C@H]2C(=O)O [natamycin] | – | – | – | ~50% | suppressed
